Publication PMC2846521 (Journal of chemical information and modeling, 2009)
pIC50, pKd: −log10 of the molar value.

tested on: not given; test: not given; conditions: mice; cited from earlier work

SMILES | carrageenan-induced inflammation
O=C1OC2(c3ccccc31)c1ccc(O)c(O)c1Oc1c2ccc(O)c1O [gallein] | lessen

target: T1, Gβ1γ2 (Homo sapiens, UniProt P62873); test: not given; conditions: surface plasmon resonance; cited from earlier work

SMILES | pKd
O=C1OC2(c3ccccc31)c1ccc(O)c(O)c1Oc1c2ccc(O)c1O [gallein] | ~6.40

tested on: neutrophil; test: not given; conditions: cited from earlier work

SMILES | chemoattractant-dependent neutrophil migration
O=C1OC2(c3ccccc31)c1ccc(O)c(O)c1Oc1c2ccc(O)c1O [gallein] | inhibit

tested on: PI3K; test: not given; conditions: cited from earlier work

SMILES | PI3K activation
O=C1OC2(c3ccccc31)c1ccc(O)c(O)c1Oc1c2ccc(O)c1O [gallein] | inhibit

tested on: phospholipase C; test: not given; conditions: cited from earlier work

SMILES | Gβγ-dependent activation of phospholipase C
O=C(O)C1CCCCC1c1c2ccc(=O)c(O)c-2oc2c(O)c(O)ccc12 (centres unmarked) [compound 119910] | inhibit

target: T1, Gβ1γ2; test: Competition ELISA with the high-affinity SIGK peptide; conditions: read-out: Median Inhibitory Concentration IC50 (binding inhibitors of SIGK); competition with SIGK peptide in ELISA

SMILES | pIC50
CN(C)CS/C(N)=N/[C@H](O)C(Cl)(Cl)Cl [compound 14555] | 4.59
Nc1cc(S(N)(=O)=O)ccc1SSc1ccc(S(N)(=O)=O)cc1N [compound 83217] | 4.24
Nc1c(S(=O)(=O)O)cc(Nc2cccc(S(N)(=O)=O)c2)c2c1C(=O)c1ccccc1C2=O [compound 117079] | 4.25
N=C(N)SCCN1CCCCC1 [compound 121771] | 3.70
CC1C2C=CC1C(c1c3ccc(=O)c(O)c-3oc3c(O)c(O)ccc13)C2C(=O)O (centres unmarked) [compound 119913] | 6.15
O=C(c1ccc([N+](=O)[O-])cc1)C(Br)C(Br)c1ccnc2ccccc12 (centres unmarked) [compound 150289] | 4.37
O=C(O)C1CCCCC1c1c2ccc(=O)c(O)c-2oc2c(O)c(O)ccc12 (centres unmarked) [compound 119910] | 6.70
O=C(O)[C@@H]1[C@H](C(=O)O)[C@]2(Cl)C(Cl)=C(Cl)[C@@]1(Cl)C2(Cl)Cl [compound 22225] | 4.94
N=C1C(O)C2(I)c3ccccc3N3C(=N)C(O)C4c5ccccc5N1C4C32 (centres unmarked) [compound 118176] | 5.09
Nc1ccc(S(=O)(=O)c2ccc(NCN3C(=O)NC(=O)C(=O)C3=O)cc2)cc1 [compound 34238] | 4.38
O=C(O)c1c(Br)c(Br)c(Br)c(Br)c1C1c2ccc(O)cc2Oc2cc(O)ccc21 [compound 119889] | 5.37
O=C1c2ccccc2C(=O)c2c(Nc3cc4c5c(ccc6c7ccc8c9c(cc(Nc%10cccc%11c%10C(=O)c%10ccccc%10C%11=O)c(c3c56)c97)-c3ccccc3C8=O)C(=O)c3ccccc3-4)cccc21 [compound 23128] | 4.57
O=C1c2cc([N+](=O)[O-])ccc2-c2ccc3c4ccc5c6c(ccc(c7ccc1c2c73)c64)C(=O)c1cc([N+](=O)[O-])ccc1-5 [compound 51535] | 5.62
CN1C[C@H](c2ccccc2)C(O)([C@]2(c3ccccc3)CN(C)C[C@@H](c3ccccc3)C2=O)[C@H](c2ccccc2)C1 (some centres unmarked) [compound 39207] | 4.97
Cc1ccc(S(=O)(=O)OC2C(C3COC(C)(C)O3)OC3OC(C)(C)OC32)cc1 (centres unmarked) [compound 14163] | 5.23
C[N+]1(CCC[N+]2(C)C[C@H]3[C@H](C2)[C@H]2C=C[C@@H]3CC2)CCOCC1 (some centres unmarked) [compound 90831] | 4.03
CN(C)C1C(=O)C(C(N)=O)=C(O)C2(O)C(=O)C3=C(O)c4c(O)cccc4C(C)(O)C3CC12 (centres unmarked) [compound 69343] | 4.77

Second part, the molecule after the results:

pIC50 | SMILES
3.53 | CN(CCc1ccccn1)c1ccc2c(c1)C(=O)c1ccccc1-2 [compound 24048]
3.58 | C[N+]1(CC[N+]2(C)CCCC2c2cccnc2)CCCC1c1cccnc1 (centres unmarked) [compound 3284]
3.71 | COc1ccc(CC[N@+]2(C)COc3cc4oc(=O)cc(C)c4cc3C2)cc1OC [compound 59275]
3.74 | C[C@H]1CCCC2(CC[N+](C)(CCC[N+](C)(C)C)CC2)C1 (some centres unmarked) [compound 95676]
4.16 | CC[N+](C)(CC)CCN1C(=O)c2ccccc2S1(=O)=O [compound 45126]
4.23 | C[N+]1(CCN[N+]2(C)CCCCC2)CCc2ccccc2C1 (centres unmarked) [compound 17770]
4.27 | CCC(=O)OCN1C(=O)C=CC1=O [compound 19630]
4.32 | C[C@]12CC[C@H]3[C@@H](CCC4=CC(=O)CC[C@@]43C)[C@@H]1CC[C@@H]2C(=O)COS(=O)(=O)c1ccc(Br)cc1 [compound 88915]
4.45 | O=C1C(Cl)=C(Nc2ccc(S(=O)(=O)Nc3ccccn3)cc2)C(=O)c2ccccc21 [compound 45382]
4.60 | NCCNC(=S)S [compound 83224]
4.62 | O=C1c2ccccc2C(=O)c2c(NC3CCCCC3)ccc(Nc3ccc(S(=O)(=O)O)cc3)c21 [compound 128437]
4.74 | Nc1ccc(-c2ccc(Nc3cc(S(=O)(=O)O)c(N)c4c3C(=O)c3ccccc3C4=O)cc2)c(S(=O)(=O)O)c1 [compound 125910]
4.78 | O=C1c2ccccc2C(=O)c2c1ccc(C(=O)O)c2-c1ccc2ccccc2c1 [compound 9608]
5.15 | Cc1cc(O)c(-c2cc(O)c(C)cc2O)cc1O [compound 2805]
6.70 | O=C(O)/C=C/c1c2ccc(=O)c(O)c-2oc2c(O)c(O)ccc12 [compound 119911]

tested on: phosphoinositide 3-kinase γ (PI3K); test: not given; conditions: cited from earlier work

SMILES | Gβγ-dependent activation of phosphoinositide 3-kinase γ (PI3K)
O=C(O)C1CCCCC1c1c2ccc(=O)c(O)c-2oc2c(O)c(O)ccc12 (centres unmarked) [compound 119910] | inhibit
